Patent publication US8669292B2, “Therapeutic formulation” (Orion Therapeutics, LLC, priority 2005, dated 2014)
≈ marks a conversion by molar mass, not a printed value. Where two headings read alike, the source gives them in different places. Values belong to the compound of their own block, whether it stands above or below them.

What was measured:
Format in all cases: cell-based
[1] = system: HCT-116 human colon cancer cells; assay: IC50 assay (concentration-cell number study); conditions: HCT-116, 120 h exposure
Method: Concentration-cell number studies (IC50 assay) were carried out utilizing 12 separate compositions (numbered 1-12 below) against 13 different cancer cell lines (see Table 6). […] On day 3, cells are exposed to different concentrations of the drug. Flasks are incubated for 120 h (5 d) in a 5% CO2 incubator at 37° C. and the cells harvested with trypsin, washed once with Hanks Balanced Salt Solution (HBSS) and re-suspended in HBSS containing 0.08% Trypan Blue. Both viable and dead cells are counted using a hemocytometer. Viable cell numbers are normalized to an untreated control and plotted as a function of drug concentration. The IC50 value is determined using Prism 4.0.

[2] = system: H125 Lung Cancer; assay: IC50 assay (concentration-cell number study); conditions: 120 h exposure
Method: (§1) These cells are grown in 5 ml culture medium (RPMI-1640+15% Bovine Calf serum containing 1% penicillin-streptomycin, and 1% Glutamine) at 37° C. and 5% CO2 at a starting concentration of 5×10^4 cells/T25 flask. On day 3, cells are exposed to different concentrations of the drug. Flasks are incubated for 120 h (5 d) in a 5% CO2 incubator at 37° C. and the cells harvested with trypsin, washed once with Hanks Balanced Salt Solution (HBSS) and re-suspended in HBSS containing 0.08% Trypan Blue. Both viable and dead cells are counted using a hemocytometer. Viable cell numbers are normalized to an untreated control and plotted as a function of drug concentration. The IC50 value is determined using Prism 4.0.
(§2) Cell Lines utilized in IC50 Assays: HCT-116 human colon cancer cells, H125 Lung Cancer, MCF-7, Breast Cancer, MDA-235 Breast Cancer, LNCaP Prostate Cancer, OVAR-5 Ovarian Cancer, U251N Brain Cancer Sarcoma 180, Panc 01Pancreatic Cancer, CCRF-CEM Leukemia, HEP-G2 Liver Cancer, L1210 Leukemia, Colon 38 Colon Cancer.

[3] = system: LNCaP Prostate Cancer; assay: IC50 assay (concentration-cell number study); conditions: 120 h exposure
Method: (§3) Concentration-cell number studies (IC50 assay) were carried out utilizing 12 separate compositions (numbered 1-12 below) against 13 different cancer cell lines (see Table 6). These cells are grown in 5 ml culture medium (RPMI-1640+15% Bovine Calf serum containing 1% penicillin-streptomycin, and 1% Glutamine) at 37° C. and 5% CO2 at a starting concentration of 5×10^4 cells/T25 flask. On day 3, cells are exposed to different concentrations of the drug. Flasks are incubated for 120 h (5 d) in a 5% CO2 incubator at 37° C. and the cells harvested with trypsin, washed once with Hanks Balanced Salt Solution (HBSS) and re-suspended in HBSS containing 0.08% Trypan Blue. Both viable and dead cells are counted using a hemocytometer. Viable cell numbers are normalized to an untreated control and plotted as a function of drug concentration. The IC50 value is determined using Prism 4.0.

[4] = system: L1210 Leukemia; assay: IC50 assay (concentration-cell number study); conditions: 120 h exposure
Method: as §3

[5] = system: Colon 38 Colon Cancer; assay: IC50 assay (concentration-cell number study); conditions: 120 h exposure
Method: as §1, §2

[6] = system: MDA-235 Breast Cancer; assay: IC50 assay (concentration-cell number study); conditions: 120 h exposure
Method: as §3

[7] = system: HEP-G2 Liver Cancer; assay: IC50 assay (concentration-cell number study); conditions: 120 h exposure
Method: as §3

[8] = system: OVAR-5 Ovarian Cancer; assay: IC50 assay (concentration-cell number study); conditions: 120 h exposure
Method: as §3

[9] = system: 13 different cancer cell lines; assay: IC50 assays, average or range over all cell lines; conditions: average of 13 cell lines
Method: as §1, §2

[10] = system: Sarcoma 180; assay: IC50 assay (concentration-cell number study); conditions: 120 h exposure
Method: as §3

[11] = system: MCF-7 Breast Cancer; assay: IC50 assay (concentration-cell number study); conditions: 120 h exposure
Method: as §3

[12] = system: U251N Brain Cancer; assay: IC50 assay (concentration-cell number study); conditions: 120 h exposure
Method: as §3

[13] = system: CCRF-CEM Leukemia; assay: IC50 assay (concentration-cell number study); conditions: 120 h exposure
Method: as §3

[14] = system: Panc 01 Pancreatic Cancer; assay: IC50 assay (concentration-cell number study); conditions: 120 h exposure
Method: as §3

[15] = Homo sapiens, HCT-116, 120 h, read-out: IC50

IC50 [1, 15]: 30 ng/mL (≈ 0.0552 µM)
Compound: COc1cccc2c1C(=O)c1c(O)c3c(c(O)c1C2=O)C[C@@](O)(C(=O)CO)C[C@@H]3O[C@H]1C[C@H](N)[C@H](O)[C@H](C)O1 [Adriamycin, reference compound]

IC50 [1, 15]: 5 ng/mL (≈ 0.00606 µM)
Compound: CC[C@]1(O)C[C@H]2CN(CCc3c([nH]c4ccccc34)[C@@](C(=O)OC)(c3cc4c(cc3OC)N(C=O)[C@H]3[C@@](O)(C(=O)OC)[C@H](OC(C)=O)[C@]5(CC)C=CCN6CC[C@]43[C@@H]65)C2)C1 [Vincristine, reference compound]

IC50 [1, 15]: > 100000 ng/mL
Compound: O=C(O)CCCCC1CCSS1 (stereo not drawn) [Alpha-lipoic acid, reference compound]

IC50 [1]: >100000 ng/mL
Compound: Vitamin E [reference compound]

Compound: N.N.[Cl][Pt][Cl] [cis-Platinum, reference compound]
IC50 [1]: 100 ng/mL

IC50 [1, 15]: > 100000 ng/mL
Compound: O=C1O[C@H]([C@@H](O)CO)C(O)=C1O [Vitamin C, reference compound]

Compound: Acetogenin [Composition 3]
IC50 [2]: 1.4 ng/mL
IC50 [3]: 5.0 ng/mL
IC50 [4]: 13 ng/mL
IC50 [5]: .19 ng/mL
IC50 [1]: 2 ng/mL
IC50 ([1]; listed as 3): 2.0 ng/mL
IC50 [6]: 1.3 ng/mL
IC50 [7]: 2.2 ng/mL
IC50 [8]: 1.8 ng/mL
IC50 AVG. [9]: 2.8 ng/mL
IC50 [10]: 1.2 ng/mL
IC50 [11]: 1.3 ng/mL
IC50 [12]: 1.2 ng/mL
IC50 [13]: 5.2 ng/mL
IC50 [14]: .41 ng/mL
